Columns and labels:
[1] = target: Human immunodeficiency virus type 1 protease (Human immunodeficiency virus 1) (UniProt Q72874); experiment: Catalytic constant against human immunodeficiency virus typeI protease
[2] = target: Human immunodeficiency virus type 1 protease (Human immunodeficiency virus 1) (UniProt Q72874); experiment: Ratio of Michaelis-Menten constant and catalytic constant against human immunodeficiency virus type I protease
[3] = target: Human immunodeficiency virus type 1 protease (Human immunodeficiency virus 1) (UniProt Q72874); experiment: Inhibitory activity against human immunodeficiency virus type I protease
[4] = target: Human immunodeficiency virus type 1 protease (Human immunodeficiency virus 1, UniProt Q72874); experiment: Inhibition constant against human immunodeficiency virus 1 protease
[5] = target: Human immunodeficiency virus type 1 protease (Human immunodeficiency virus 1) (UniProt Q72874); experiment: Percent inhibition against human immunodeficiency virus 1 protease; parameters: concentration or dose not given beside the values; details: concentration not given here
[6] = target: Human immunodeficiency virus type 1 protease (Human immunodeficiency virus 1) (UniProt Q72874); experiment: Inhibitory activity against human immunodeficiency virus typeI protease

Row | inhibition [5] [%] | SMILES | also measured
1 | 97 | COC(=O)C(Cc1ccccc1)NC(=O)C1C(O)C(=O)N1C(C(=O)NCC1N=Cc2cncnc21)c1ccccc1 (configuration not stated) | K cat [1]: 0.1 s⁻¹; Ratio [2]: 0.155 mM⁻¹ s⁻¹; inhibition [3]: 80 µM; Ki [4]: 63.2 µM
2 | 71 | CC1CC(=O)N1C(Cc1ccccc1)C(=O)NCC1CCCCC1 (configuration not stated) | 
3 | 76 | CC1CN(C(C(=O)NCC2N=Cc3cncnc32)c2ccccc2)C1=O (configuration not stated) | 
4 | 86 | CCCCNC(=O)C(c1ccccc1)N1C(=O)CC1C(=O)NC(Cc1ccccc1)C(=O)OC (configuration not stated) | 
5 | 70 | COC(=O)CNC(=O)[C@H](c1ccccc1)N1CCC1=O | 
6 | 75 | O=C(NCc1ccccc1)C(c1ccccc1)N1C(=O)CC1c1ccccc1 (configuration not stated) | 
7 | 97 | COC(=O)CNC(=O)C(c1ccccc1)N1C(=O)CC1C(=O)OCc1ccccc1 (configuration not stated) | K cat [1]: 0.144 s⁻¹; Ratio [2]: 0.157 mM⁻¹ s⁻¹; inhibition [6]: 1000 µM; Ki [4]: 1140 µM
8 | 71 | CCCC(C(=O)NCC1CCCCC1)N1C(=O)CC1C(=O)NC(Cc1ccccc1)C(=O)OC (configuration not stated) | 
9 | 68 | COC(=O)C(Cc1ccccc1)NC(=O)C1CC(=O)N1C(Cc1ccccc1)C(=O)NCC(C)C (configuration not stated) | 
10 | 65 | CC(C)CNC(=O)C(Cc1ccccc1)N1CCC1=O (configuration not stated) | 
11 | 76 | CC1CN(C(Cc2ccccc2)C(=O)NCC2CCCCC2)C1=O (configuration not stated) | 
12 | 68 | O=C(NCC1N=Cc2cncnc21)C(c1ccccc1)N1CCC1=O (configuration not stated) | 
13 | 71 | CCCCNC(=O)C(c1ccccc1)N1C(=O)CC1C(=O)OCc1ccccc1 (configuration not stated) | 
14 | 71 | COC(=O)C(Cc1ccccc1)NC(=O)C1CC(=O)N1C(C(=O)NCC(C)C)c1ccccc1 (configuration not stated) | 
15 | 62 | CC1CC(=O)N1C(Cc1ccccc1)C(=O)NCC1C=Nc2cncnc21 (configuration not stated) | 
16 | 72 | CC(C)CNC(=O)C(Cc1ccccc1)N1CC(C)C1=O (configuration not stated) | 
17 | 66 | O=C(NCC1CCCCC1)C(Cc1ccccc1)N1CC(O)C1=O (configuration not stated) | 
18 | 83 | CCCC(C(=O)NCC1N=Cc2cncnc21)N1C(=O)CC1C(=O)OCc1ccccc1 (configuration not stated) | 
19 | 78 | O=C(NCC1N=Cc2cncnc21)C(c1ccccc1)N1C(=O)CC1c1ccccc1 (configuration not stated) | 
20 | 119 | O=C(OCc1ccccc1)C1CC(=O)N1C(C(=O)NCc1ccccc1)c1ccccc1 (configuration not stated) | 

Row | inhibition [5] [%] | SMILES | also measured
21 | 103 | CCC[C@@H](C(=O)NCC(=O)OC)N1C(=O)CC1C(=O)N[C@@H](Cc1ccccc1)C(=O)OC (some centres not stated) | 
22 | 93 | CCCCNC(=O)C(CCC)N1C(=O)CC1c1ccccc1 (configuration not stated) | 
23 | 79 | O=C(NCC1CCCCC1)C(c1ccccc1)N1CCC1=O (configuration not stated) | 
24 | 63 | CCCCNC(=O)C(c1ccccc1)N1C(=O)CC1c1ccccc1 (configuration not stated) | 
25 | 86 | CC1CN(C(C(=O)NCc2ccccc2)c2ccccc2)C1=O (configuration not stated) | 
26 | 67 | COC(=O)CNC(=O)C(Cc1ccccc1)N1C(=O)CC1C(=O)OCc1ccccc1 (configuration not stated) | 
27 | 65 | O=C(NCc1ccccc1)C(Cc1ccccc1)N1CCC1=O (configuration not stated) | 
28 | 83 | CC1CC(=O)N1C(C(=O)NCC1CCCCC1)c1ccccc1 (configuration not stated) | 
29 | 92 | CC1C(=O)N(C(C(=O)NCC2CCCCC2)c2ccccc2)C1C(=O)OCc1ccccc1 (configuration not stated) | 
30 | 87 | CCCC(C(=O)NCC(=O)OC)N1C(=O)C(C)C1C(=O)OCc1ccccc1 (configuration not stated) | 
31 | 66 | O=C(NCC1N=Cc2cncnc21)C(Cc1ccccc1)N1C(=O)CC1C(=O)OCc1ccccc1 (configuration not stated) | 
32 | 68 | CCC[C@@H](C(=O)NCC(=O)OC)N1C(=O)C[C@H]1c1ccccc1 | 
33 | 74 | CCCCNC(=O)C(Cc1ccccc1)N1C(=O)CC1c1ccccc1 (configuration not stated) | 
34 | 78 | CCCCNC(=O)C(Cc1ccccc1)N1CC(C)C1=O (configuration not stated) | 
35 | 69 | COC(=O)CNC(=O)[C@H](Cc1ccccc1)N1C(=O)C[C@H]1C(=O)N[C@@H](Cc1ccccc1)C(=O)OC | 
36 | 63 | COC(=O)CNC(=O)[C@H](c1ccccc1)N1C[C@H](C)C1=O | 
37 | 74 | CCCC(C(=O)NCC1N=Cc2cncnc21)N1CCC1=O (configuration not stated) | 
38 | 71 | CC1CN(C(Cc2ccccc2)C(=O)NCC2N=Cc3cncnc32)C1=O (configuration not stated) | 
39 | 67 | CC1CC(=O)N1C(C(=O)NCc1ccccc1)c1ccccc1 (configuration not stated) | 
40 | 97 | O=C(OCc1ccccc1)C1CC(=O)N1C(C(=O)NCC1N=Cc2cncnc21)c1ccccc1 (configuration not stated) | K cat [1]: 0.126 s⁻¹; Ratio [2]: 0.151 mM⁻¹ s⁻¹; inhibition [3]: 60 µM; Ki [4]: 60.3 µM
